Results taken from patent US8815509B2, “Fluorescence-based assay for the rapid detection and quantification of deoxyribonucleoside triphosphates” (University of Southern California, priority 2011, dated 2014).

Test system: HCT116 human colorectal cancer cells
Assay: Intracellular dNTP pools of HCT116 cells after treatment with thymidylate synthase inhibitors, measured with the fluorescence-based dNTP assay
Settings: for Intracellular dGTP concentration / Intracellular dCTP concentration / Intracellular dATP concentration / Intracellular dTTP concentration: 4 h, Mean ± SD; for Intracellular dGTP concentration: control 4.7 ± 0.8; for Intracellular dCTP concentration: control 10.5 ± 0.2; for Intracellular dATP concentration: control 13.6 ± 1.17; for Intracellular dTTP concentration: control 20.4 ± 0.77; for dGTP after treatment: depletion from 4.7; for dCTP levels after treatment: reduction from 10.5; for dTTP after treatment: vehicle-treated cells 20.4
[1] = HCT116, 2.5 μmol/L pemetrexed, 4 hours

Method: Reaction mixtures contained primer, probe and template at an equimolar final concentration of 0.4 mmol/L. MgCl2 was included at a final concentration of 2 mmol/L. Non-limiting dNTPs were included in the reaction mix in excess at a final concentration of 100 mmol/L (the dNTP to be assayed was excluded). AmpliTaq Gold DNA polymerase was added at 0.875 U/reaction, 2.5 μl of 10×PCR buffer 2 added and nuclease-free ddH2O added to a final reaction volume of 25 μl. For analysis of cell extracts, the volume of ddH20 was modified to accommodate the addition of 2.5 μl of cell extract. For dUTP determination from cell extracts, the volume of ddH20 was further modified to accommodate an additional 1 μl of dUTPase (10 ng/μl). Thermal profiling and fluorescence detection was performed using the ‘isothermal’ program on board an Applied Biosystems 7500 Real-Time PCR System. For analysis of dNTPs, the thermal profile consisted of a 10 min 95° C. step to ‘hot-start’ the Taq polymerase and a primer extension time of up to 30 min at 60° C. depending on the application. Raw fluorescence spectra for 6-FAM was measured using filter A at specified time intervals (typically every 5 min) to follow assay progression using Sequence Detection Software (SDS Version 1.4, Applied Biosystems) and exported and analyzed in Microsoft Excel (Microsoft, Redmond Wash.) and Prism (GraphPad Software, La Jolla Calif.). In all cases, fluorescence values for blank reactions (limiting dNTP omitted) were subtracted to give normalized fluorescence units (NFU) to account for background probe fluorescence.
The human colorectal cancer cell line HCT116 was purchased from American Type Culture Collection (Lockville, Md.). HCT116 cells were maintained in McCoy's 5A media (Invitrogen) supplemented with 10% fetal bovine serum (Lonza, Walkersville, Md.) with penicillin/streptomycin, sodium pyruvate and L-glutamine (Invitrogen, Carlsbad, Calif.). For pemetrexed analyses, cells were incubated in folate-depleted RPMI supplemented with 25 nmol/L 5-Formyltetrahydrofolate, 10% fetal bovine serum (Lonza), penicillin/streptomycin, sodium pyruvate and L-glutamine for 24 h prior to treatment. Cells were maintained in a humidified Form a incubator (Form a, Waltham, Mass.) at 37° C. with 5% CO2 and routinely screened for mycoplasma using the MycoALERT detection kit (Lonza) and verified mycoplasma negative.
The relationship between assay response and known concentrations of the analytes (dNTPs) was analyzed by a 5-point (minimum) calibration curve. Calibration curves were obtained by assaying serial dilutions of dNTP standards diluted with ultra-pure nuclease-free water to the desired concentration and evaluated using regression coefficients (R^2). Samples were assayed in triplicate, and experiments were repeated on three independent occasions as appropriate. The limit of detection (LOD) was defined as the mean value of the negative blind controls plus 3 standard deviations (SD) of the mean, i.e. the concentration with a signal to noise ratio of 3:1. The limit of quantification (LOQ) was defined as the mean value of the negative controls plus 5 SD determined from three independent assays (signal to noise ratio of 5:1). Coefficient of variation (% CV) values were calculated from the cumulative mean and SD of replicates. Inter-assay % CVs were calculated from 3 independent experiments performed on different days. The intra-assay % CV represents the mean±SD % CV obtained from assaying replicate samples within 3 identical yet independent assays performed on the same day. The accuracy was assessed by comparing the nominal dNTP concentrations with the corresponding calculated values based on the calibration curve and presented as a percentage.

O=c1[nH]cc(F)c(=O)[nH]1 [5-FU, 5-fluorouracil]
Intracellular dGTP concentration (HCT116, 5 μmol/L 5-FU): 0.88 ± 0.1 pmoles × 10^6 cells | Intracellular dCTP concentration (HCT116, 5 μmol/L 5-FU): 8.7 ± 0.24 pmoles × 10^6 cells | Intracellular dATP concentration (HCT116, 5 μmol/L 5-FU): 13.9 ± 0.33 pmoles × 10^6 cells | Intracellular dTTP concentration (HCT116, 5 μmol/L 5-FU): 1.64 ± 0.16 pmoles × 10^6 cells | dGTP after treatment (HCT116, 5 μmol/L 5-FU, 4 hours): 0.9 pmoles per 10^6 cells | dCTP levels after treatment (HCT116, 5 μmol/L 5-FU, 4 hours): 8.7 pmoles per 10^6 | dTTP after treatment (HCT116, 5 μmol/L 5-FU, 4 hours): 1.6 pmoles per 10^6 cells

O=c1[nH]c(=O)n([C@H]2C[C@H](O)[C@@H](CO)O2)cc1F [FUdR, fluorodeoxyuridine]
Intracellular dGTP concentration (HCT116, 1 μmol/L FUdR): 0.43 ± 0.11 pmoles × 10^6 cells | Intracellular dCTP concentration (HCT116, 1 μmol/L FUdR): 8 ± 0.04 pmoles × 10^6 cells | Intracellular dATP concentration (HCT116, 1 μmol/L FUdR): 14.5 ± 0.13 pmoles × 10^6 cells | Intracellular dTTP concentration (HCT116, 1 μmol/L FUdR): 4.5 ± 0.71 pmoles × 10^6 cells | Depletion of dTTP versus vehicle-treated cells (HCT116, 1 μmol/L FUdR, 4 hours): > 4 fold | dGTP after treatment (HCT116, 1 μmol/L FUdR, 4 hours): 0.43 pmoles per 10^6 cells | dCTP levels after treatment (HCT116, 1 μmol/L FUdR, 4 hours): 8 pmoles per 10^6 | dTTP after treatment (HCT116, 1 μmol/L FUdR, 4 hours): 4.5 pmoles per 10^6 cells

Nc1nc2[nH]cc(CCc3ccc(C(=O)N[C@@H](CCC(=O)O)C(=O)O)cc3)c2c(=O)[nH]1 [PTX, pemetrexed]
Intracellular dGTP concentration (HCT116, 2.5 μmol/L PTX): 1.14 ± 0.3 pmoles × 10^6 cells | Intracellular dCTP concentration (HCT116, 2.5 μmol/L PTX): 11.1 ± 2.5 pmoles × 10^6 cells | Intracellular dATP concentration (HCT116, 2.5 μmol/L PTX): 13.4 ± 1.68 pmoles × 10^6 cells | Intracellular dTTP concentration (HCT116, 2.5 μmol/L PTX): 3.93 ± 0.8 pmoles × 10^6 cells | dGTP after treatment [1]: 1.1 pmoles per 10^6 cells | dTTP after treatment [1]: 3.9 pmoles per 10^6 cells
